Patent publication US7579006B2, “Method of treating immune pathologies with low dose estrogen” (Oregon Health and Science University, priority 2000, dated 2009)
Like-named read-outs stand apart in the source and are kept apart here.

Experiments:
female SJL mice = assay: EAE induced with PLP 139-151 in female SJL mice (clinical scores, spinal cord histopathology); format: in vivo; settings: for Demyelinated foci/section / Inflammatory foci/section: spinal cord at peak of disease
B10.PL mice = assay: EAE induced with MBP Ac1-11 in B10.PL mice; format: in vivo
male SJL mice = assay: EAE induced with PLP 139-151 in male SJL mice; format: in vivo
[1] = system: draining lymph node (DLN) cells; assay: Flow cytometry of activation and adhesion markers on DLN cells of SJL mice with EAE; format: in vivo; settings: DLN cells at peak of EAE
Method: Immunofluorescent staining for flow cytometry. Draining lymph node (DLN) cells were removed during the peak of clinical symptoms and analyzed for the expression of cell surface proteins by fluorescent staining ex vivo. The following fluorochrome conjugated antibodies obtained from Pharmingen Inc. (San Diego, Calif.) were used for the direct staining of DLN cells: anti-CD4, anti-CD25, anti-CD69, anti-CD95L, anti-CD44, anti-CD62L, anti-CD49d. Two-color immunofluorescent analysis was performed on a FACScan instrument (Becton Dickinson, Mountain View, Calif.) using Cellquest software. For each experiment the cells were stained with isotype control antibodies to establish background staining, and to set the quadrants prior to calculating the percent positive staining cells. […] Alterations in the expression of adhesion or activation markers on T cells are often indicative of functional changes in the cell. Monoclonal antibodies specific for a number of these markers were used to assess whether estrogen therapy altered their expression. Draining lymph node (DLN) cells were recovered from mice during the peak of clinical EAE, incubated with the indicated fluorochrome conjugated monoclonal antibodies, and surface expression measured by fluorescent activated cell analyzer.

DLN cells = assay: PLP 139-151 induced cytokine production by DLN cells (ELISA); format: in vivo, mice; settings: 48-72 hours after PLP 139-151 stimulation
Method: Cytokine detection by ELISA. DLN cells were cultured at 4×10^6/ml and stimulated with the appropriate antigen in 24 well culture plates. Cell culture supernatants were recovered between 48-72 hr and frozen at −70° C. until needed for the cytokine assay. Measurement of cytokines was performed by ELISA using cytokine specific capture and detection antibodies (Pharmingen). Standard curves for each assay were generated using recombinant mouse cytokines (Pharmingen), and the concentration of cytokines in the cell supernatants was determined by interpolation from the appropriate standard curve. IFN-γ, TNF-α and IL-12 were chosen as representative Th1 cytokines, while IL-4 and IL-10 were measured as representative Th2 cytokines.
To determine if low dose estrogen therapy altered cytokine secretion patterns, DLN cells were prepared from individual mice at the peak of clinical EAE and cytokine levels were measured 48-72 hours after in vitro stimulation with PLP 139-151. IFN-γ, IL-12, and TNF-α were used as representative Th1 cytokines while IL-4, and IL-10 were used as representative Th2 cytokines. […] Despite the lack of statistical significance, the trend towards higher Th1 and lower Th2 cytokines points towards a subtle shift in the Th1/Th2 balance. The shift can be seen more clearly when the cytokine response of each individual mouse is plotted as a ratio of IFN-γ to IL-10 (FIG. 5C). There was a marked decrease in the frequency of high Th1 responder mice in the E2 and E3 treated groups when compared to placebo animals that approached significance (p=0.09 for the 5.0 mg E3 treated mice). Additionally, no informative trends were detected in IL-4 secretion (FIG. 5D), and TNF-α secretion was very often below the limits of detection for the assay (<31.25 pg/ml). Modest changes in cytokine responses induced by low dose estrogen therapy were also observed in the B10.PL model and were consistent with the data described for the SJL model.

[2] = cited from earlier work

SMILES: C[C@]12CC[C@@H]3c4ccc(O)cc4CC[C@H]3[C@@H]1C[C@@H](O)[C@@H]2O [Estriol, estriol]
- CDI (cumulative disease index) (female SJL mice; 1.5 mg/pellet (low)): 9.3 ± 2.6
- Incidence (female SJL mice; 1.5 mg/pellet (low)): 6/10
- Incidence (%) (female SJL mice; 1.5 mg/pellet (low)): (60%)
- Onset (female SJL mice; 1.5 mg/pellet (low)): 16.4 ± 0.7 days
- Peak (disease score) (female SJL mice; 1.5 mg/pellet (low)): 2.0 ± 0.0
- Relapse (female SJL mice; 1.5 mg/pellet (low)): 0/3
- Relapse (%) (female SJL mice; 1.5 mg/pellet (low)): (0%)
- Demyelinated foci/section (female SJL mice; 2.5 mg pellet): 0.8 ± 0.2 foci/section
- Inflammatory foci/section (female SJL mice; 2.5 mg pellet): 1.2 ± 0.6 foci/section
- Demyelinated foci/section (female SJL mice; 5.0 mg pellet): 0.3 ± 0.2 foci/section
- Inflammatory foci/section (female SJL mice; 5.0 mg pellet): 0.9 ± 0.5 foci/section
- CDI (cumulative disease index) (female SJL mice; 5.0 mg/pellet (pregnancy)): 6.5 ± 9
- Incidence (female SJL mice; 5.0 mg/pellet (pregnancy)): 2/5
- Incidence (%) (female SJL mice; 5.0 mg/pellet (pregnancy)): (40%)
- Onset (female SJL mice; 5.0 mg/pellet (pregnancy)): 33.5 ± 5.0 days
- Peak (disease score) (female SJL mice; 5.0 mg/pellet (pregnancy)): 1.4 ± 2.2
- Relapse (female SJL mice; 5.0 mg/pellet (pregnancy)): 0/2
- Relapse (%) (female SJL mice; 5.0 mg/pellet (pregnancy)): (0%)
- CDI (cumulative disease index) (female SJL mice; 15.0 mg/pellet (high)): 4.4 ± 3.5
- Incidence (female SJL mice; 15.0 mg/pellet (high)): 5/10
- Incidence (%) (female SJL mice; 15.0 mg/pellet (high)): (50%)
- Onset (female SJL mice; 15.0 mg/pellet (high)): 23.8 ± 9 days
- Peak (disease score) (female SJL mice; 15.0 mg/pellet (high)): 1.4 ± 1.1
- Relapse (female SJL mice; 15.0 mg/pellet (high)): 0/1
- Relapse (%) (female SJL mice; 15.0 mg/pellet (high)): (0%)
- comparison of E2 and E3 in incidence or severity of EAE (female SJL mice; Fisher exact test, same animal model): equally protective
- CDI (B10.PL mice; 1.5 mg/pellet (low)): 1.9 ± 1.7
- Incidence (B10.PL mice; 1.5 mg/pellet (low)): 5/8
- Incidence (%) (B10.PL mice; 1.5 mg/pellet (low)): 38%
- Onset (B10.PL mice; 1.5 mg/pellet (low)): 30.3 ± 0.9 days
- Peak (disease score) (B10.PL mice; 1.5 mg/pellet (low)): 1.38 ± 0.8
- CDI (B10.PL mice; 5 mg/pellet (pregnancy)): 1.0 ± 0.5
- Incidence (B10.PL mice; 5 mg/pellet (pregnancy)): 3/8
- Incidence (%) (B10.PL mice; 5 mg/pellet (pregnancy)): 38%
- Onset (B10.PL mice; 5 mg/pellet (pregnancy)): 31.3 ± 0.7 days
- Peak (disease score) (B10.PL mice; 5 mg/pellet (pregnancy)): 0.71 ± 0.4
- inhibitory effect on EAE compared with 17β-estradiol (B10.PL mice; B10.PL females): equivalent inhibitory effect on EAE
- CDI (male SJL mice; 2.5 mg/pellet): 3.2 ± 2.5
- Incidence (male SJL mice; 2.5 mg/pellet): 2/3
- Incidence (%) (male SJL mice; 2.5 mg/pellet): 67%
- Onset (male SJL mice; 2.5 mg/pellet): 16.5 ± 0.7 days
- Peak (disease score) (male SJL mice; 2.5 mg/pellet): 0.67 ± 0.6
- CDI (male SJL mice; 5.0 mg/pellet): 2.6 ± 5.3
- Incidence (male SJL mice; 5.0 mg/pellet): 1/4
- Incidence (%) (male SJL mice; 5.0 mg/pellet): 25%
- Onset (male SJL mice; 5.0 mg/pellet): 16.0 ± 0 days
- Peak (disease score) (male SJL mice; 5.0 mg/pellet): 0.50 ± 1.0
- CD4, % of Total ([1]; 2.5 mg pellet): 45%
- CD25, % of CD4+ T cells ([1]; 2.5 mg pellet): 5.5%
- CD44, % of CD4+ T cells ([1]; 2.5 mg pellet): 36%
- CD62L, % of CD4+ T cells ([1]; 2.5 mg pellet): 12%
- CD69, % of CD4+ T cells ([1]; 2.5 mg pellet): 7.5%
- CD49d, % of CD4+ T cells ([1]; 2.5 mg pellet): 36%
- FASL, % of CD4+ T cells ([1]; 2.5 mg pellet): 3.1%
- CD4, % of Total ([1]; 5.0 mg pellet): 47%
- CD25, % of CD4+ T cells ([1]; 5.0 mg pellet): 6.4%
- CD44, % of CD4+ T cells ([1]; 5.0 mg pellet): 38%
- CD62L, % of CD4+ T cells ([1]; 5.0 mg pellet): 8.8%
- CD69, % of CD4+ T cells ([1]; 5.0 mg pellet): 8.3%
- CD49d, % of CD4+ T cells ([1]; 5.0 mg pellet): 37%
- FASL, % of CD4+ T cells ([1]; 5.0 mg pellet): 2.7%
- IL-10 secretion by DLN cells (DLN cells): modest increase
- IL-12 secretion by DLN cells (DLN cells): small decrease
- secretion of IFN-γ by DLN cells (DLN cells; p>0.10): consistently lower
- serum concentration from 60-day release pellet ([2]; 0.025 mg pellet): 10 to 20 pg/mL
- serum concentration from 60-day release pellet ([2]; 0.1 mg pellet): 40 to 50 pg/mL
- serum concentration from 60-day release pellet ([2]; 0.36 mg pellet): 150 to 200 pg/mL
- serum concentration from 60-day release pellet ([2]; 1.5 mg pellet): 800-1,000 pg/ml
- serum concentration from 60-day release pellet ([2]; 2.5 mg pellet): 2,000-3,000 pg/ml
- serum concentration from 60-day release pellet ([2]; 5 mg pellet): 5,000-6,000 pg/ml
- serum concentration from 60-day release pellet ([2]; 15 mg pellet): 10,000-15,000 pg/ml
